How the values were obtained:
Assay type in all cases: in vivo
[1] = tested on: field corn (Zea mays L., var. Dekalb 527, CORN); test: Pre-emerge greenhouse crop damage test
Excerpt: (§1) A standard greenhouse herbicide activity screening system was used to evaluate the herbicidal efficacy and crop safety of these test compounds. Seven broadleaf weed species including redroot pigweed (Amaranthus retroflexus, AMARE), velvetleaf (Abutilon theophrasti, ABUTH), sicklepod (Cassia obtusifolia, CASOB), ivyleaf morningglory (Ipomoea hederacea, IPOHE), lambsquarters (Chenopodium album, CHEAL), common ragweed (Ambrosia artemisiifolia L., AMBEL), and cocklebur (Xanthium strumarium, XANST) were used as test species. Four grass weed species including green foxtail (Setaria viridis, SETVI), barnyardgrass (Echinochloa crus-galli, ECHCG), johnsongrass (Sorghum halepense, SORHA), and large crabgrass (Digitaria sanguinalis, DIGSA) were also used. In addition, three crop species, field corn (Zea mays L., var. Dekalb 527, CORN), soybean (Glycine max L., var. Pella 86, SOY), and upland rice (Ory0a sp., var.Tebonnet, RICE) were included.
(§2) All plants were grown in 10 cm square plastic pots which were filled with a sandy loam soil mix. For pre-emerge tests, seeds were planted one day prior to application of the test compounds. For post-emerge tests, seeds were planted 8-21 days prior to the test to allow emergence and good foliage development prior to application of the test substances. At the time of the post-emerge application, plants of all species were usually at the 2-3 leaf stage of development.
(§3) All test compounds were dissolved in acetone and applied to the test units in a volume of 187 l/ha. Test materials were applied at rates ranging from 15 g ai/ha to 1000 g ai/ha using a track sprayer equipped with a TJ8001E even flow flat fan spray nozzle. Plants were arranged on a shelf so that the top of the canopy (post-emerge) or top of the soil surface (pre-emerge) was 40-45 cm below the nozzle. Pressurized air was used to force the test solution through the nozzle as it was mechanically advanced over the top of all test plants/pots. This application simulates a typical commercial field herbicide application.
(§4) In the post-emerge test, a commercial non-ionic surfactant was also included (0.25% v/v) to enhance wetting of the leaf surfaces of target plants. Immediately after application, test units of the pre-emerge applications were watered at the soil surface to incorporate the test materials.
(§5) At 14 days after application of the test materials, phytotoxicity ratings were recorded. A rating scale of 0-100 was used as previously described in Research Methods in Weed Science, 2nd edition, B. Truelove, Ed., Southern Weed Science Society, Auburn University, Auburn, Ala., 1977. Briefly, “0” corresponds to no damage and “100” corresponds to complete death of all plants in the test unit. This scale was used both to determine efficacy against weed species and damage to crop species. Herbicide activity data for various compounds of this invention, which are shown by compound No. in Tables 1-14, are shown in Tables 16 and 17.

[2] = tested on: soybean (Glycine max L., var. Pella 86, SOY); test: Pre-emerge greenhouse crop damage test
Excerpt: as §1, §2, §3, §4, §5

[3] = tested on: upland rice (Ory0a sp., var.Tebonnet, RICE); test: Pre-emerge greenhouse crop damage test
Excerpt: as §1, §2, §3, §4, §5

[4] = tested on: johnsongrass (Sorghum halepense, SORHA); test: Pre-emerge greenhouse herbicide test; details: 250 g ai/ha, 14 days after application, scale 0-100 (0 no damage, 100 complete death)
Excerpt: as §1, §2, §3, §4, §5

[5] = tested on: lambsquarters (Chenopodium album, CHEAL); test: Pre-emerge greenhouse herbicide test; details: 250 g ai/ha, 14 days after application, scale 0-100 (0 no damage, 100 complete death)
Excerpt: as §1, §2, §3, §4, §5

[6] = tested on: barnyardgrass (Echinochloa crus-galli, ECHCG); test: Pre-emerge greenhouse herbicide test; details: 250 g ai/ha, 14 days after application, scale 0-100 (0 no damage, 100 complete death)
Excerpt: as §1, §2, §3, §4, §5

[7] = tested on: redroot pigweed (Amaranthus retroflexus, AMARE); test: Pre-emerge greenhouse herbicide test; details: 250 g ai/ha, 14 days after application, scale 0-100 (0 no damage, 100 complete death)
Excerpt: as §1, §2, §3, §4, §5

[8] = tested on: velvetleaf (Abutilon theophrasti, ABUTH); test: Pre-emerge greenhouse herbicide test; details: 250 g ai/ha, 14 days after application, scale 0-100 (0 no damage, 100 complete death)
Excerpt: as §1, §2, §3, §4, §5

[9] = tested on: green foxtail (Setaria viridis, SETVI); test: Pre-emerge greenhouse herbicide test; details: 250 g ai/ha, 14 days after application, scale 0-100 (0 no damage, 100 complete death)
Excerpt: as §1, §2, §3, §4, §5

[10] = tested on: large crabgrass (Digitaria sanguinalis, DIGSA); test: Pre-emerge greenhouse herbicide test; details: 250 g ai/ha, 14 days after application, scale 0-100 (0 no damage, 100 complete death)
Excerpt: as §1, §2, §3, §4, §5

[11] = tested on: ivyleaf morningglory (Ipomoea hederacea, IPOHE); test: Pre-emerge greenhouse herbicide test; details: 250 g ai/ha, 14 days after application, scale 0-100 (0 no damage, 100 complete death)
Excerpt: as §1, §2, §3, §4, §5

[12] = tested on: sicklepod (Cassia obtusifolia, CASOB); test: Pre-emerge greenhouse herbicide test; details: 250 g ai/ha, 14 days after application, scale 0-100 (0 no damage, 100 complete death)
Excerpt: as §1, §2, §3, §4, §5

[13] = tested on: field corn (Zea mays L., var. Dekalb 527, CORN); test: Post-emerge greenhouse crop damage test
Excerpt: as §1, §2, §3, §4, §5

[14] = tested on: soybean (Glycine max L., var. Pella 86, SOY); test: Post-emerge greenhouse crop damage test
Excerpt: as §1, §2, §3, §4, §5

[15] = tested on: upland rice (Ory0a sp., var.Tebonnet, RICE); test: Post-emerge greenhouse crop damage test
Excerpt: as §1, §2, §3, §4, §5

[16] = tested on: johnsongrass (Sorghum halepense, SORHA); test: Post-emerge greenhouse herbicide test; details: 250 g ai/ha, 14 days after application
Excerpt: as §1, §2, §3, §4, §5

[17] = tested on: lambsquarters (Chenopodium album, CHEAL); test: Post-emerge greenhouse herbicide test; details: 250 g ai/ha, 14 days after application
Excerpt: as §1, §2, §3, §4, §5

[18] = tested on: barnyardgrass (Echinochloa crus-galli, ECHCG); test: Post-emerge greenhouse herbicide test; details: 250 g ai/ha, 14 days after application
Excerpt: as §1, §2, §3, §4, §5

[19] = tested on: redroot pigweed (Amaranthus retroflexus, AMARE); test: Post-emerge greenhouse herbicide test; details: 250 g ai/ha, 14 days after application
Excerpt: as §1, §2, §3, §4, §5

[20] = tested on: velvetleaf (Abutilon theophrasti, ABUTH); test: Post-emerge greenhouse herbicide test; details: 250 g ai/ha, 14 days after application
Excerpt: as §1, §2, §3, §4, §5

[21] = tested on: green foxtail (Setaria viridis, SETVI); test: Post-emerge greenhouse herbicide test; details: 250 g ai/ha, 14 days after application
Excerpt: as §1, §2, §3, §4, §5

[22] = tested on: large crabgrass (Digitaria sanguinalis, DIGSA); test: Post-emerge greenhouse herbicide test; details: 250 g ai/ha, 14 days after application
Excerpt: as §1, §2, §3, §4, §5

[23] = tested on: ivyleaf morningglory (Ipomoea hederacea, IPOHE); test: Post-emerge greenhouse herbicide test; details: 250 g ai/ha, 14 days after application
Excerpt: as §1, §2, §3, §4, §5

[24] = tested on: sicklepod (Cassia obtusifolia, CASOB); test: Post-emerge greenhouse herbicide test; details: 250 g ai/ha, 14 days after application
Excerpt: as §1, §2, §3, §4, §5

[25] = var. Dekalb 527, field corn (Zea mays L.), in vivo, 14 days
[26] = var. Pella 86, soybean (Glycine max L.), in vivo, 14 days
[27] = var. Tebonnet, upland rice (Ory0a sp.), in vivo, 14 days
[28] = pre-emerge, 250 g ai/ha, 14 days after application, scale 0-100 (0 no damage, 100 complete death)
[29] = 250 g ai/ha, post-emerge, 14 days after application

Cn1c(C(F)(F)F)cc(=O)n(-c2c(F)cc(Cl)c3c2N=C(c2ccccc2)CO3)c1=O [Compound 1-3, 3-(8-Chloro-6-fluoro-3-phenyl-2H-1,4-benzoxazin-5-yl)-1-methyl-6-trifluoromethyl-2,4(1H,3H)-pyrimidindione]
10: Pre-emerge Herbicidal Activity RICE (crop damage rating) [3, 27] | Post-emerge crop damage CORN (phytotoxicity rating 0-100) [13, 25]
60: Post-emerge Herbicidal Activity AMARE (phytotoxicity rating 0-100) [19]
20: Post-emerge crop damage RICE (phytotoxicity rating 0-100) [15, 27] | Post-emerge Herbicidal Activity CHEAL (phytotoxicity rating 0-100) [17]
0: Pre-emerge Herbicidal Activity CORN (crop damage rating) [1, 25] | Pre-emerge Herbicidal Activity SOY (crop damage rating) [2, 26] | Pre-emerge Herbicidal Activity SORHA (phytotoxicity rating) [4] | Pre-emerge Herbicidal Activity ECHCG (phytotoxicity rating) [6] | Pre-emerge Herbicidal Activity DIGSA (phytotoxicity rating) [10] | Pre-emerge Herbicidal Activity IPOHE (phytotoxicity rating) [11] | Post-emerge Herbicidal Activity SORHA (phytotoxicity rating 0-100) [16] | Post-emerge Herbicidal Activity ECHCG (phytotoxicity rating 0-100) [18] | Post-emerge Herbicidal Activity SETVI (phytotoxicity rating 0-100) [21] | Post-emerge Herbicidal Activity DIGSA (phytotoxicity rating 0-100) [22] | Post-emerge Herbicidal Activity CASOB (phytotoxicity rating 0-100) [24]
100: Pre-emerge Herbicidal Activity CHEAL (phytotoxicity rating) [5] | Pre-emerge Herbicidal Activity AMARE (phytotoxicity rating) [7]
80: Pre-emerge Herbicidal Activity ABUTH (phytotoxicity rating) [8] | Pre-emerge Herbicidal Activity SETVI (phytotoxicity rating) [9] | Pre-emerge Herbicidal Activity CASOB (phytotoxicity rating) [12]
30: Post-emerge crop damage SOY (phytotoxicity rating 0-100) [14, 26] | Post-emerge Herbicidal Activity IPOHE (phytotoxicity rating 0-100) [23]
90: Post-emerge Herbicidal Activity ABUTH (phytotoxicity rating 0-100) [20]

CCOC(=O)c1nc2c(-n3c(=O)cc(C(F)(F)F)n(C)c3=O)c(F)cc(Cl)c2oc1=O [Compound 3-5]
10: Post-emerge Herbicidal Activity SETVI (phytotoxicity rating 0-100) [21]
70: Pre-emerge Herbicidal Activity CHEAL (phytotoxicity rating) [5]
20: Post-emerge Herbicidal Activity AMARE (phytotoxicity rating 0-100) [19]
0: Pre-emerge Herbicidal Activity CORN (crop damage rating) [1, 28] | Pre-emerge Herbicidal Activity SOY (crop damage rating) [2, 28] | Pre-emerge Herbicidal Activity RICE (crop damage rating) ([3]; in vivo) | Pre-emerge Herbicidal Activity SORHA (phytotoxicity rating) [4] | Pre-emerge Herbicidal Activity ECHCG (phytotoxicity rating) [6] | Pre-emerge Herbicidal Activity SETVI (phytotoxicity rating) [9] | Pre-emerge Herbicidal Activity DIGSA (phytotoxicity rating) [10] | Pre-emerge Herbicidal Activity IPOHE (phytotoxicity rating) [11] | Pre-emerge Herbicidal Activity CASOB (phytotoxicity rating) [12] | Post-emerge crop damage CORN (phytotoxicity rating 0-100) [13, 29] | Post-emerge crop damage SOY (phytotoxicity rating 0-100) [14, 29] | Post-emerge crop damage RICE (phytotoxicity rating 0-100) [15, 29] | Post-emerge Herbicidal Activity SORHA (phytotoxicity rating 0-100) [16] | Post-emerge Herbicidal Activity CHEAL (phytotoxicity rating 0-100) [17] | Post-emerge Herbicidal Activity ECHCG (phytotoxicity rating 0-100) [18] | Post-emerge Herbicidal Activity DIGSA (phytotoxicity rating 0-100) [22] | Post-emerge Herbicidal Activity IPOHE (phytotoxicity rating 0-100) [23] | Post-emerge Herbicidal Activity CASOB (phytotoxicity rating 0-100) [24]
60: Post-emerge Herbicidal Activity ABUTH (phytotoxicity rating 0-100) [20]
50: Pre-emerge Herbicidal Activity AMARE (phytotoxicity rating) [7]
65: Pre-emerge Herbicidal Activity ABUTH (phytotoxicity rating) [8]

CCc1nc2c(N3C(=O)C4CCCCN4C3=S)c(F)cc(Cl)c2o1 (single isomer, unassigned) [Compound 7-5, 8-(7-Chloro-2-ethyl-5-fluorobenzoxazol-4-yl)-1,8-diazobicyclo[4,3,0]nonane-7-one-9-thione]
20: Post-emerge crop damage CORN (phytotoxicity rating 0-100) [13, 29]
0: Pre-emerge Herbicidal Activity CORN (crop damage rating) [1, 28] | Pre-emerge Herbicidal Activity SOY (crop damage rating) [2, 28] | Pre-emerge Herbicidal Activity RICE (crop damage rating) [3, 28] | Pre-emerge Herbicidal Activity ECHCG (phytotoxicity rating) [6] | Pre-emerge Herbicidal Activity SETVI (phytotoxicity rating) [9] | Pre-emerge Herbicidal Activity DIGSA (phytotoxicity rating) [10] | Pre-emerge Herbicidal Activity IPOHE (phytotoxicity rating) [11] | Pre-emerge Herbicidal Activity CASOB (phytotoxicity rating) [12] | Post-emerge Herbicidal Activity SORHA (phytotoxicity rating 0-100) [16] | Post-emerge Herbicidal Activity ECHCG (phytotoxicity rating 0-100) [18]
100: Post-emerge Herbicidal Activity CHEAL (phytotoxicity rating 0-100) [17] | Post-emerge Herbicidal Activity AMARE (phytotoxicity rating 0-100) [19] | Post-emerge Herbicidal Activity ABUTH (phytotoxicity rating 0-100) [20] | Post-emerge Herbicidal Activity IPOHE (phytotoxicity rating 0-100) [23] | Post-emerge Herbicidal Activity CASOB (phytotoxicity rating 0-100) [24]
60: Pre-emerge Herbicidal Activity CHEAL (phytotoxicity rating) [5] | Post-emerge Herbicidal Activity SETVI (phytotoxicity rating 0-100) [21]
10: Post-emerge crop damage RICE (phytotoxicity rating 0-100) [15, 29] | Post-emerge Herbicidal Activity DIGSA (phytotoxicity rating 0-100) [22]
50: Pre-emerge Herbicidal Activity AMARE (phytotoxicity rating) [7]
30: Pre-emerge Herbicidal Activity ABUTH (phytotoxicity rating) [8]
80: Post-emerge crop damage SOY (phytotoxicity rating 0-100) ([14]; in vivo)
